Measured values reported in US6388131B2, “Benzene compounds as antiproliferative and cholesterol lowering agents” (Tularik, Inc., priority 1997, dated 2002).

What was measured:
HeLa cells = assay: Inhibition of in vitro growth of HeLa cells (Alamar Blue uptake); format: cell-based; conditions: Homo sapiens; concentration required to inhibit by 50% the uptake of Alamar Blue by HeLa cell cultures
Excerpt: Compounds and compositions of a particular embodiment of the invention display specific toxicity to various types of cells, preferably exerting their cytotoxic effects by interacting with cellular tubulin, preferably covalently and irreversibly. Compounds and compositions may be evaluated in vitro for their ability to inhibit cell grow, for example, as described by Ahmed et al. (J. Immunol. Methods 1994, 170, 211). […] Established animal models to evaluate antiproliferative effects of compounds are known in the art. For example, compounds can be evaluated for their ability to inhibit the growth of human tumors grafted into immunodeficient mice using methodology similar to that described by Rygaard and Poylsen (Acta Pathol. Microbiol. Scand. 1969, 77, 758) and Giovanella and Fogh (Adv. Cancer Res. 1985, 44, 69).
Compounds were evaluated for their ability to inhibit in vitro the growth of HeLa cells, an immortal cell line derived from a human cervical carcinoma commonly used to evaluate the cytotoxicity of potential therapeutic agents. The following data reflect the cytotoxicity of selected examples of the present invention. The values given represent the concentration of test compound required to inhibit by 50% the uptake of Alamar Blue (Biosource International, Camarillo, Calif.) by HeLA cell cultures, which correlates directly with the overall levels of cellular metabolism in the culture, and is generally accepted as an appropriate′marker of cell growth. The test was conducted according to the method of Ahmed et al. (J. Immunol. Methods 1994, 170, 211).

[1] = test system: LDL receptor expression in HepG2 cells; assay: Increase of LDL receptor expression in HepG2 cells, western-blot analysis; format: cell-based; conditions: Homo sapiens, minimum concentration at which a maximal induction of LDL receptor levels was observed
Method: Compounds and compositions of a particular embodiment of the invention are capable of specifically regulating LDL receptor gene expression. Compounds may be evaluated in vitro for their ability to increase LDL receptor expression using western-blot analysis, for example, as described by Tam et al. (J. Biol. Chem. 1991, 266, 16764). Preferred such compounds and compositions provide ECmax of less than about 50 μM, preferably less than about 5 μM, more preferably less than about 0.5 μM, more preferably less than about 0.05 μM, and most preferably less than about 0.005 μM in this assay (see, e.g. Example 28 herein). Established animal models to evaluate hypocholesterolemic effects of compounds are known in the art. For example, compounds disclosed herein are shown to lower cholesterol levels in hamsters fed a high-cholesterol diet, using a protocol simllar to that described by Spady et al. (J. Clin. Invest. 1988, 81, 300), Evans et al. (J. Lipid Res. 1994, 35, 1634), and Lin et al (J. Med. Chem. 1995, 38, 277).
Certain compounds were evaluated for their ability to increase LDL receptor expression in HepG2 cells using western-blot analysis as described by Tam et al., (J. Biol. Chem., 1991, 266, 16764). […] In all cases, the level of induction was greater than that observed under lipid-free conditions (activated system) in the absence of the test compounds.

SMILES	IC50 (HeLa cells) [nM]	EC (max) [1] [µM]
COc1ccc(NS(=O)(=O)c2c(F)c(F)c(F)c(F)c2Br)cc1O [Example 3, 1-Bromo-3,4,5,6-tetrafluoro-2-[(3-hydroxy-4-methoxyphenyl)aminosulfonyl]benzene]	50	0.15
COc1ccc(NS(=O)(=O)c2cc(F)c(F)c(F)c2)cc1O [Example 23, 3,4,5-Trifluoro-1-[(3-hydroxy-4-methoxyphenyl)aminosulfonyl]benzene]	1500	
COc1ccc(NS(=O)(=O)c2cc(Br)c(F)c(F)c2F)cc1 [Example 10, 1-Bromo-2,3,4-trifluoro-5-[(4-methoxyphenyl)aminosulfonyl]benzene]	500	1.5
COc1ccc(NS(=O)(=O)c2ccc(F)c(F)c2F)cc1O [Example 17, 1-[(3-Hydroxy-4-methoxyphenyl)aminosulfonyl]-2,3,4-trifluorobenzene]	1500	
COc1ccc(CS(=O)(=O)c2c(F)c(F)c(F)c(F)c2F)cc1 [Example 24, 4-Methoxybenzyl Pentafluorophenyl Sulfone]	5000	1.5
COc1ccc(NS(=O)(=O)c2c(F)c(Cl)c(F)c(Cl)c2F)cc1 [Example 8, 1,3-Dichloro-2,4,6-trifluoro-5-[(4-methoxyphenyl)aminosulfony]benzene]	150	0.5
COc1ccc(NS(=O)(=O)c2c(F)c(F)c(F)c(F)c2Br)cc1 [Example 4, 1-Bromo-3,4,5,6-tetrafluoro-2-[(4-methoxyphenyl)aminosulfonyl]benzene]	150	0.5
COc1ccc(NS(=O)(=O)c2c(F)c(F)c(Br)c(F)c2F)cc1 [Example 6, 1-Bromo-2,3,5,6-tetrafluoro-4-[(4-methoxyphenyl)aminosulfonyl]benzene]	5000	50
COc1ccc(NS(=O)(=O)c2c(F)cc(F)c(F)c2F)cc1 [Example 19, 2,3,4,6-Tetrafluoro-1-[(4-methoxyphenyl)aminosulfonyl]benzene]	5000	15
COc1ccc(NS(=O)(=O)c2ccc(F)c([N+](=O)[O-])c2)cc1O [Example 2, 4-Fluoro-1-[(3-hydroxy-4-methoxyphenyl)aminosulfonyl]-3-nitrobenzene]	150	1.5
COc1ccc(NS(=O)(=O)c2c(F)c(F)c(F)c(Br)c2F)cc1 [Example 5]	150	0.5
COc1ccc(NS(=O)(=O)c2cc(F)c(F)c(F)c2Br)cc1 [Example 11, 1-Bromo-4,5,6-trifluoro-2-[(4-methoxyphenyl)aminosulfonyl]benzene]	500	1.5
COc1ccc(NS(=O)(=O)c2cc(F)c(F)c(F)c2)cc1 [Example 22, 3,4,5-Trifluoro-1-[(4-methoxyphenyl)aminosulfonyl]benzene]	5000	5
COc1ccc(NS(=O)(=O)c2cc(F)c(F)c(F)c2F)cc1O [Example 21, 2,3,4,5-Tetrafluoro-1-[(3-hydroxy-4-methoxyphenyl)aminosulfonyl]benzene]	150	0.5
COc1ccc(NS(=O)(=O)c2c(F)c(Cl)c(F)c(Cl)c2F)cc1O [Example 9, 1,3-Dichloro-2,4,6-trifluoro-5-[(3-hydroxy-4-methoxyphenyl)aminosulfonyl]benzene]	50	0.15
COc1ccc(NS(=O)(=O)c2ccc(F)c([N+](=O)[O-])c2)cc1 [Example 1, 4-Fluoro-1-[(4-methoxyphenyl)aminosulfonyl]-3-nitrobenzene]		5
COc1ccc(NS(=O)(=O)c2cc(F)c(F)c(F)c2F)cc1 [Example 20, 2,3,4,5-Tetrafluoro-1-[(4-methoxyphenyl)aminosulfonyl]benzene]	500	1.5
COc1ccc(NS(=O)(=O)c2c(F)c(F)c(Cl)c(F)c2F)cc1 [Example 7, 1-Chloro-2,3,5,6-tetrafluoro-4-[(4-methoxyphenyl)aminosulfonyl]benzene]	1500	50
